# Several values for one entry are separate records, joined by “and”; a condition that tells them apart may be missing. Identical values can stand only once.
# Assays:
# AGTACT = assay: DNase I footprint titration, AGTACT site; type: binding; details: equilibrium association constant Ka; pH 7.0, 22° C.
# ACTACT = assay: DNase I footprint titration, ACTACT site; type: binding; details: equilibrium association constant Ka; pH 7.0, 22° C.
# ATTACT = assay: DNase I footprint titration, ATTACT site; type: binding; details: equilibrium association constant Ka; pH 7.0, 22° C.
# AATACT = assay: DNase I footprint titration, AATACT site; type: binding; details: equilibrium association constant Ka; pH 7.0, 22° C.
# [1] = system: Staphylococcus aureus (29213); assay: MIC, NCCLS broth microdilution; type: cell-based; details: Staphylococcus aureus (29213)
# [2] = system: Staphylococcus aureus (33591) (methicillin resistant); assay: MIC, NCCLS broth microdilution; type: cell-based; details: Staphylococcus aureus (33591), methicillin resistant (MRSA)
# [3] = system: Staphylococcus epidermidis (12228); assay: MIC, NCCLS broth microdilution; type: cell-based; details: Staphylococcus epidermidis (12228)
# [4] = system: Enterococcus faecalis (29212); assay: MIC, NCCLS broth microdilution; type: cell-based; details: Enterococcus faecalis (29212)
# [5] = system: Enterococcus faecium (51559) (vacomycin resistant); assay: MIC, NCCLS broth microdilution; type: cell-based; details: Enterococcus faecium (51559), vancomycin resistant
# [6] = system: Streptococcus pneumoniae (49619); assay: MIC, NCCLS broth microdilution; type: cell-based; details: Streptococcus pneumoniae (49619)
# [7] = system: Streptococcus pneumoniae (51422) (multiple drug resistant); assay: MIC, NCCLS broth microdilution; type: cell-based
# [8] = system: Streptococcus pyogenes (49339); assay: MIC, NCCLS broth microdilution; type: cell-based; details: Streptococcus pyogenes (49339); Table Ia: Streptococcus Group A(49339)
# [9] = system: Listeria monocytogenes (19115); assay: MIC, NCCLS broth microdilution; type: cell-based
# Bacillus anthracis = type: cell-based
# Bacillus subtilis (6633) [10] = assay: MIC, NCCLS broth microdilution; type: cell-based; details: Bacillus subtilis (6633)
# Bacillus cereus (11778) [11] = assay: MIC, NCCLS broth microdilution; type: cell-based; details: Bacillus cereus (11778)
# [12] = system: Corynebacterium Group A (49676); assay: MIC, NCCLS broth microdilution; type: cell-based; details: Corynebacterium Group A (49676)
# [13] = system: Propionibacterium acnes (33179); assay: MIC, NCCLS broth microdilution; type: cell-based; details: anaerobe
# [14] = system: Clostridium perfringens (13124); assay: microbe, parasite or virus in culture; type: cell-based; details: Clostridium perfringens (13124), anaerobe
# [15] = system: Peptostreptococcus asaccharolytics (29743); assay: MIC, NCCLS broth microdilution; type: cell-based; details: anaerobe
# [16] = system: Haemophilus influenzae (49247); assay: MIC, NCCLS broth microdilution; type: cell-based; details: Haemophilus influenzae (49247)
# Esherichia coli (25922) = assay: MIC, NCCLS broth microdilution; type: cell-based, Escherichia coli; details: Escherichia coli (25922)
# [17] = system: Pseudomona aeruginosa (27853); assay: MIC, NCCLS broth microdilution; type: cell-based; details: Pseudomona aeruginosa (27853)
# Candida albicans (90028) [18] = assay: MIC, antifungal assay; type: cell-based
# [19] = system: Candida albicans (38247) (Polyene resistant); assay: MIC, antifungal assay; type: cell-based
# [20] = system: Saccharomyces cerevisiae (44773); assay: MIC, antifungal assay; type: cell-based
# [21] = system: Aspergillus niger (10535); assay: MIC, antifungal assay; type: cell-based
# Fusarium solani (36031) = assay: MIC, antifungal assay; type: cell-based
# [22] = system: Paecilomyces variotii (22319); assay: MIC, antifungal assay; type: cell-based
# [23] = system: Trichophyto tonsurans (28942); assay: MIC, antifungal assay; type: cell-based
# [24] = system: Staphylococcus aureus (29213); assay: MBC according to NCCLS guideline; type: cell-based
# [25] = system: Enterococcus faecalis (29212); assay: MBC according to NCCLS guideline; type: cell-based
# [26] = system: Streptococcus pneumoniae (49619); assay: MBC according to NCCLS guideline; type: cell-based
# Bacillus cereus (11778) [27] = assay: MBC according to NCCLS guideline; type: cell-based
# Candida albicans (90028) [28] = assay: MBC according to NCCLS guideline; type: cell-based
# [29] = system: Saccharomyces cerevisiae (44773); assay: MBC according to NCCLS guideline; type: cell-based
# all species tested = assay: Microbicidal activity (MIC versus MBC), all species tested; type: cell-based; details: in words; from difference between MICs and MBCs
# Excerpt: The minimal bactericidal concentration (MBC) has been determined for some of these designed compounds according to NCCLS guideline (Lorian, V. 1996 Antibiotics in laboratory medicine (The Williams & Wilkins Co., Baltimore, Md.)). The difference between the MICs and the MBCs has been established as an index of the bactericidal activity of an antibiotic.
# [30] = system: different species of bacteria and fungi; details: exception: Gram-negative bacteria such as Escherichia and Pseudomonas
# [31] = system: Staphylococcus aureus (33591) (methicillin resistant)
# [32] = system: Staphylococcus epidermidis (12228)
# [33] = system: Enterococcus faecium (51559) (vacomycin resistant); details: vancomycin resistant
# [34] = system: Streptococcus pyogenes (49339)
# Bacillus subtilis (6633) [35] = system: Bacillus subtilis (6633)
# [36] = system: Corynebacterium Group A (49676)
# [37] = system: Propionibacterium acnes (33179)
# [38] = system: Clostridium perfringens (13124)
# [39] = system: Peptostreptococcus asaccharolytics (29743)
# TGGTCA = details: equilibrium association constant Ka; pH 7.0, 22° C.
smiles,measurement,setting,value
CN(C)CCCNC(=O)c1cc(NC(=O)c2cc(NC(=O)c3cc(NC(=O)c4nsc(NCCCCN)c4Cl)cn3C)cn2C)cn1C [V-a],"Binding Constant, sequence AGTACT",AGTACT,3e+09 M⁻¹
same,"Binding Constant, sequence ACTACT",ACTACT,1e+08 M⁻¹
same,"Binding Constant, sequence ATTACT",ATTACT,1e+08 M⁻¹
same,"Binding Constant, sequence AATACT",AATACT,1e+08 M⁻¹
same,MIC,[1],2 µg/mL
same,MIC,[2],2 µg/mL
same,MIC,[3],1 µg/mL
same,MIC,[4],1 µg/mL
same,MIC,[5],1 µg/mL
same,MIC,[6],0.5 µg/mL
same,MIC,[7],8 µg/mL
same,MIC,[8],0.125 µg/mL
same,MIC,[9],4 µg/mL
same,MIC,Bacillus anthracis,4 µg/mL
same,MIC,Bacillus subtilis (6633) [10],0.25 µg/mL and 0.25 to 0.5 µg/mL
same,MIC,Bacillus cereus (11778) [11],0.25 µg/mL
same,MIC,[12],0.25 µg/mL and 0.25 to 0.5 µg/mL
same,MIC,[13],2 µg/mL and 4 µg/mL
same,MIC,[14],1 µg/mL
same,MIC,[15],0.125 µg/mL
same,MIC,[16],32 µg/mL
same,MIC,Esherichia coli (25922),>128 µg/mL
same,MIC,[17],>128 µg/mL
same,MIC,Candida albicans (90028) [18],4 µg/mL
same,MIC,[19],4 µg/mL
same,MIC,[20],8 µg/mL
same,MIC,[21],2 µg/mL
same,MIC,Fusarium solani (36031),4 µg/mL
same,MIC,[22],0.5 µg/mL
same,MIC,[23],16 µg/mL
same,MBC,[24],2 µg/mL
same,MBC,[25],>4 µg/mL
same,MBC,[26],0.5 µg/mL
same,MBC,Bacillus cereus (11778) [27],0.5 µg/mL
same,MBC,Candida albicans (90028) [28],4 µg/mL
same,MBC,[29],8 µg/mL
same,Microbicidal activity,all species tested,microbicidal agents for all species tested
same,MIC for most species tested,[30],less than 8 μg/mL
same,MBC,[31],4 µg/mL
same,MBC,[32],1 µg/mL
same,MBC,[33],2 to 4 µg/mL
same,MBC,[34],0.125 µg/mL
same,MBC,Bacillus subtilis (6633) [35],0.5 µg/mL
same,MBC,Micrococcus luteus (381),0.5 µg/mL
same,MBC,[36],0.25 µg/mL
same,MBC,[37],8 µg/mL
same,MBC,[38],2 µg/mL
same,MBC,[39],0.25 µg/mL
CN(C)CCCNC(=O)c1cc(NC(=O)c2cc(NC(=O)c3cc(NC(=O)c4nsc(NCCCN)c4Cl)cn3C)cn2C)cn1C [V-b],"Binding Constant, sequence AGTACT",AGTACT,3e+09 M⁻¹
same,"Binding Constant, sequence ACTACT",ACTACT,2e+08 M⁻¹
same,"Binding Constant, sequence ATTACT",ATTACT,1e+08 M⁻¹
same,"Binding Constant, sequence AATACT",AATACT,1e+08 M⁻¹
same,MIC,[1],2 µg/mL
same,MIC,[2],4 µg/mL
same,MIC,[3],2 µg/mL
same,MIC,[4],1 µg/mL
same,MIC,[5],2 to 4 µg/mL
same,MIC,[6],0.5 µg/mL
same,MIC,[7],1 µg/mL
same,MIC,[8],0.25 µg/mL
same,MIC,[9],8 µg/mL
same,MIC,Bacillus anthracis,32 µg/mL
same,MIC,Bacillus subtilis (6633) [10],0.5 to 1 µg/mL
same,MIC,Bacillus cereus (11778) [11],0.5 µg/mL
same,MIC,[12],0.5 µg/mL
same,MIC,[13],4 µg/mL
same,MIC,[14],1 µg/mL
same,MIC,[15],0.125 µg/mL
same,MIC,[16],32 µg/mL
same,MIC,Esherichia coli (25922),>128 µg/mL
same,MIC,[17],>128 µg/mL
same,MIC,Candida albicans (90028) [18],4 µg/mL
same,MIC,[20],16 µg/mL
same,MIC,[21],4 µg/mL
same,MIC,Fusarium solani (36031),4 to 8 µg/mL
same,MIC,[22],0.5 µg/mL
same,MIC,[23],16 µg/mL
same,MBC,[24],4 µg/mL
same,MBC,[25],>4 µg/mL
same,MBC,[26],0.5 µg/mL
same,MBC,Bacillus cereus (11778) [27],0.5 µg/mL
same,MBC,Candida albicans (90028) [28],4 µg/mL
same,MBC,[29],16 µg/mL
same,Microbicidal activity,all species tested,microbicidal agents for all species tested
CN(C)CCCNC(=O)CCNC(=O)c1cc(NC(=O)c2cc(NC(=O)c3cc(NC(=O)c4cc(NC(=O)c5nsc(Cl)c5Cl)cn4C)cn3C)cn2C)cn1C [V-t],"Binding Constant, sequence AGTACT",AGTACT,2e+08 M⁻¹
same,"Binding Constant, sequence ACTACT",ACTACT,2e+08 M⁻¹
same,"Binding Constant, sequence ATTACT",ATTACT,2e+08 M⁻¹
same,"Binding Constant, sequence AATACT",AATACT,2e+08 M⁻¹
same,"Binding Constant, sequence TGGTCA",TGGTCA,1e+10 M⁻¹
